The source of these data is patent US6489316B2, “6-(spirocyclopropyl) penicillanic acid 4, 4-dioxides” (priority 2000, dated 2002).

Read-outs that look alike come from different tables or passages of the source.

The target in assay [1] is Class C(AmpC) beta-lactamase (UniProt P00811). The experiment in a line: beta-lactamase inhibition, spectrophotometric with nitrocefin. It is filed as biochemical. Conditions: for IC50: 10-minute preincubation of enzyme with inhibitor at 25° C., nitrocefin substrate; for inhibition of class C(AmpC) enzymes, in words: summary of Table I.
In assay [2] the target is Class A(TEM-1) beta-lactamase (Escherichia coli, UniProt P62593). The assay is described as above. Conditions: for IC50: 10-minute preincubation of enzyme with inhibitor at 25° C., nitrocefin substrate; for inhibition of class A(TEM-1) enzymes, in words: summary of Table I. It is filed as biochemical.
Sequence of Class A(TEM-1) beta-lactamase (P62593 24-286 limits assumed): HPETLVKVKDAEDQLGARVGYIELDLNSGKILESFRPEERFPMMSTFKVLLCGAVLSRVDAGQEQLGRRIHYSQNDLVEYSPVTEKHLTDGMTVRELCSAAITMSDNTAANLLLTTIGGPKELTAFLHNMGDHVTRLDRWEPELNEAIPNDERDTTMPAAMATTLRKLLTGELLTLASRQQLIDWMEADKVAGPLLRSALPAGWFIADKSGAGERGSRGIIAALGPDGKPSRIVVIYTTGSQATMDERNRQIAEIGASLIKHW
The next assay concerns E. coli + (AmpC). The experiment in a line: microbial assay, MIC in broth, antibiotic with inhibitor 1:1. The assay is classed as cell-based. Conditions: Escherichia coli, serial two-fold dilutions. As to the method:
(§1) Representative Example 9 was tested in a microbial assay in combination with the penicillin antibiotic Piperacillin. In these tests, minimum inhibitory concentration(MIC) are determined in broth using serial two-fold dilutions with a 1:1 ratio of Piperacillin to inhibitor(N. A. Kuck; N. V. Jacobs; P. J. Peterson; W. J. Weiss; and R. T. Testa, in “Antimicrobial Agents and Chemotherapy”, Vol. 33, 1989, pages 1964-1969).

The subject of another assay is E. coli 300 + (AmpC). The assay is described as above. Conditions: for MIC: Escherichia coli, Table II, combinations 1:1 ratio antibiotic to inhibitor. It is filed as cell-based. On the procedure: as §1
A further assay deals with E. coli GC 6265 (TEM-1). The description is as above. It is filed as cell-based. Conditions: for MIC: Escherichia coli, Table II, combinations 1:1 ratio antibiotic to inhibitor. On the procedure:
as §1

The subject of assay [3] is P. aeroginosa (AmpC derepressed). The assay is described as above. Conditions: serial two-fold dilutions. It is filed as cell-based. On the procedure:
as §1

The next assay deals with S. marcescens (AmpC). The description is as above. Conditions: Serratia marcescens, serial two-fold dilutions. The assay is classed as cell-based. On the procedure:
as §1

In assay [4] the target is Class B(Imi-1) beta-lactamase (Enterobacter cloacae, UniProt Q46991). The experiment in a line: beta-lactamase inhibition, spectrophotometric with nitrocefin. The assay is classed as biochemical. Conditions: 10-minute preincubation of enzyme with inhibitor at 25° C., nitrocefin substrate.
Sequence of Class B(Imi-1) beta-lactamase (Q46991 entry or part of it): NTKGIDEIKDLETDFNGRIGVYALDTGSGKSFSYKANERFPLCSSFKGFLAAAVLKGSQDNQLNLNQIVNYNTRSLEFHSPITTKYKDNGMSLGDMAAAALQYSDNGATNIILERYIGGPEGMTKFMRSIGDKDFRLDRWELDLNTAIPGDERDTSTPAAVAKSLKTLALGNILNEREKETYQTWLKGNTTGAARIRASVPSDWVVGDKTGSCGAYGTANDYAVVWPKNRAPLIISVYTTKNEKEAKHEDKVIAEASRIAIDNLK
Another assay concerns E. coli + (TEM-1). The experiment in a line: microbial assay, MIC in broth, antibiotic with inhibitor 1:1. It is filed as cell-based. Conditions: Table III, serial two-fold dilutions, combinations 1:1 ratio Piperacillin to inhibitor. As to the method:
as §1

Setting [5] is: Table II, combinations 1:1 ratio antibiotic to inhibitor.
The mark [6] stands for this setting: broth, serial two-fold dilutions.
[7] abbreviates: Table II, combinations 1:1 ratio antibiotic to inhibitor, read-out: MIC P. aeroginosa (AmpC derepressed).
The mark [8] stands for this setting: summary of Table II, combined with piperacillin or cefotaxime.
The mark [9] stands for this setting: Table III, combinations 1:1 ratio Piperacillin to inhibitor.
Where [10] appears, read: Table III, broth, serial two-fold dilutions, combinations 1:1 ratio Piperacillin to inhibitor.

On to `CC(C)(C)[Si](C)(C)OC1C[C@@]12C(=O)N1[C@@H](C(=O)O)C(C)(C)S(=O)(=O)[C@@H]12` (single isomer, unassigned) [Example 8], for which the IC50 (usually the concentration at which inhibition is half-maximal) in [1] amounted to 1.9 µM; in [2] (IC50 Class A(TEM-1)), 17 µM.
Consider `CC(C)(C)[Si](C)(C)OC1CC12C(=O)N1[C@@H](C(=O)O)C(C)(C)S(=O)(=O)[C@@H]12` (single isomer, unassigned) [Example 10], for which, in assay [1], the IC50 was 0.343 µM and the “inhibition of class C(AmpC) enzymes, in words” value was “very potent inhibitors”. Also, the IC50 in assay [2] (IC50 Class A(TEM-1)) was 12 µM.
For `CC1(C)C(C(=O)O)N2C(=O)C3(CC3OC3CCCCC3)C2S1(=O)=O` (single isomer, unassigned) [Example 12], the IC50 worked out at 32 µM in [1] and 1.7 µM in assay [2] (IC50 Class A(TEM-1)).
For the compound `CC1(C)C(C(=O)O)N2C(=O)C3(CC3OC3CCCCC3)C2S1(=O)=O` (single isomer, unassigned) [Example 13], in [1], the IC50 was found to be 0.037 µM and the “inhibition of class C(AmpC) enzymes, in words” value is reported as “very potent inhibitors”. In addition, in [2] (IC50 Class A(TEM-1)), the IC50 came out at 0.51 µM. For the same compound, the “inhibition of class A(TEM-1) enzymes, in words” value in assay [2] is “potent inhibitors”.
For the compound `CC1(C)C(C(=O)O)N2C(=O)C3(CC3OC3CCCCC3)C2S1(=O)=O` (single isomer, unassigned) [Example 14], the IC50 in [1] amounted to 3.16 µM; in [2] (IC50 Class A(TEM-1)), 130 µM.
For `CO/N=C(\C(=O)N[C@@H]1C(=O)N2C(C(=O)O)=C(COC(C)=O)CS[C@H]12)c1csc(N)n1` [Cefotaxime, cefotaxime], the MIC (usually the lowest concentration found to suppress growth) was greater than 64 µg/mL in the assay on E. coli + (AmpC) (setting [5]); 16 µg/mL in the assay on E. coli 300 + (AmpC) (setting [6]); 64 µg/mL in the assay with E. coli GC 6265 (TEM-1) (setting [6]); greater than 64 µg/mL in assay [3] (setting [7]); 8 µg/mL with S. marcescens (AmpC) (setting [5]).
Consider `CC(C)(C)[Si](C)(C)O[C@H]1C[C@]12C(=O)N1[C@@H](C(=O)[O-])C(C)(C)S(=O)(=O)[C@@H]12.[Na+]` [Example 9, (1R,2S,5R)-2-[(tert-Butyldimethylsilyl)oxy]-3,3-dimethyl-7-oxospiro[cyclopropane-1,6-[4]thia[1]azabicyclo[3.2.0]-heptane]-2-carboxylic acid, Sodium Salt, 4,4-dioxide], for which the IC50 in assay [1] came to 0.021 µM; in assay [2] (read-out: IC50 Class A(TEM-1)), 0.65 µM; in [4], 12 µM. The “inhibition of class C(AmpC) enzymes, in words” value in assay [1] is listed as “very potent inhibitors”. Besides, the “inhibition of class A(TEM-1) enzymes, in words” value in assay [2] is “potent inhibitors”. Also, the “activity as a beta-lactamase inhibitor with E.coli 300+(AmpC), in words” value in the assay with E. coli 300 + (AmpC) (setting [8]) is on record as “very potent activity”. For the same compound, the “activity as a beta-lactamase inhibitor with E.coli GC6265 (TEM-1), in words” value in the assay on E. coli GC 6265 (TEM-1) (setting [8]) was “very potent activity”.
On to `CCN1CCN(C(=O)N[C@@H](C(=O)N[C@@H]2C(=O)N3[C@@H]2SC(C)(C)[C@@H]3C(=O)O)c2ccccc2)C(=O)C1=O` [Piperacillin], for which the MIC was greater than 64 µg/mL in the assay on E. coli + (AmpC) (setting [5]); 32 µg/mL in the assay on E. coli + (AmpC) (setting [9]); 32 µg/mL in the assay with E. coli 300 + (AmpC) (setting [6]); greater than 64 µg/mL in the assay with E. coli GC 6265 (TEM-1) (setting [6]); greater than 64 µg/mL in [3] (setting [7]); greater than 64 µg/mL in assay [3] (Table III, combinations 1:1 ratio Piperacillin to inhibitor, read-out: MIC P. aeroginosa). Besides, the figures for the MIC with S. marcescens (AmpC) (setting [5]) and in the assay with S. marcescens (AmpC) (setting [9]) were 32 µg/mL and 64 µg/mL, respectively. Moreover, the “MIC E. coli + (TEM-1)” value with E. coli + (TEM-1) is greater than 64 µg/mL. Moreover, the “MIC E. coli 300 + (AmpC)” value in the assay with E. coli 300 + (AmpC) (setting [10]) came to 32 µg/mL. The “MIC E. coli GC 6265 (TEM-1)” value with E. coli GC 6265 (TEM-1) (setting [10]) was greater than 64 µg/mL.
In the case of `CC1(C)[C@H](C(=O)O)N2C(=O)C[C@H]2S1(=O)=O` [Sulbactam, reference compound], in [1], the IC50 amounted to 65.9 µM.
